Entries after “also recorded” stand apart in the source; their conditions may differ. Where two headings read alike, the source gives them in different places.

Data set [1] deals with sAPPα. The experiment in a line: sAPPα levels in the presence of ApoE4 (AlphaLISA). To be noted: in the presence of ApoE4 (ApoE4-transfected cells). Type of data set: cell-based. Here is the method: (§1) sAPPα or sAPPβ secreted into the cellular media are determined with sAPPα or sAPPβ AlphaLISA immunoassay kits (PerkinElmer) according to the manufacturer's protocol with some modifications. The standards, blanks, and media are diluted with the buffer provided in the kit and added to the plate. During the first incubation step, the analyte is captured either by an antibody recognizing the α-secretase cleavage site at sAPPα C-terminus (clone 2B3) or the sAPPβ C-terminus, and then by a second biotin-labeled antibody specific to the N-terminal common domain of sAPP. In the second incubation step, the biotinylated anti-analyte antibody is bound to the streptavidin-coated donor beads. At the end of this reaction, the plates are read on an EnSpire Alpha 2390 multilabel plate reader equipped with the AlphaScreen module. The Aβ1-42 or 1-40 are determined from media and/or cells using Life Science's sandwich ELISA kit. The levels of Aβ are quantified from a standard curve and normalized to total cellular protein (Spilman et al. (2014) Brain Res. 1551: 25-44; Theendakara et al. (2013) Proc. Natl. Acad. Sci. USA, 10(45): 18303-18308), Tau and p-tau are determined from cell extracts by a solid phase double antibody sandwich ELISA technology designed for quantitative determination of phospho-tau (Antibodies-Online). APP and p-APP are determined by the DuoSet IC ELISA (R&D Systems) to measure phosphorylated APP in cell lysates. An immobilized capture antibody specific for APP binds both phosphorylated and unphosphorylated APP. After unbound material is washed away, a biotinylated detection antibody is used to detect either APP or phosphor-APP utilizing a standard HRP format. Using these assay procedures we notice a significant increase in p-tau and p-APP levels in ApoE4-transfected cells. It can be determined whether the primary “hits” reverse the ApoE4-mediated APP-Thr phosphorylation and tau-phosphorylation.
For orientation: In Alpha technology, singlet oxygen from a donor bead excites a nearby acceptor bead.

Data set [2] has as its system p-APP. Kind of data set: APP phosphorylation (p-APP) in cells transfected with ApoE4. It is filed as cell-based. Here is the method:
as §1

Data set [3] relates to SirT1. The experiment in a line: Primary AlphaLISA screening assay: SirT1 levels in N2a cells stably transfected with ApoE4. Type of data set: cell-based, mouse. Particulars: for SirT1 levels (dose-response): N2A neuroblastoma cells stably transfected with ApoE4. Here is the method: We have developed a primary screening assay that is HTS formatable; the assay would be done on N2a cells (mouse neuroblastoma cells) that have been stably transfected with ApoE3 and ApoE4. The cells are treated with drugs and the SirT1 levels are measured using the AlphaLISA assay that we have developed, e.g., as shown in FIG. 11. The illustrated AlphaLISA uses an antibody (Ab, E104, Abcam) that binds the C-terminus of SirT1 and is on the acceptor bead. The N-terminal Ab (D1D7, Abcam) is biotinylated and binds to the donor bead. For the primary assay the Neuro-2a (N2a) cells stably expressing similar levels of hApoE3 or hApoE4 are used. The primary assay can be done in triplicate. The N2a cells have reasonably good endogenous levels of APP thus avoiding the necessity of APP transfection. In general, for the assays N2a cells stably transfected with hApoE3 (E3) or hApoE4 (E4) are plated, e.g., at […] in 384-well plates in […] of growth medium and allowed to attached for 3 h. The E4 cells are treated with compounds overnight, E3 cells are controls. The following day, growth medium is removed and cells are lysed with AlphaLysis buffer complemented with protease and phosphatase inhibitors.
Then, the AlphaLISA assay is run and molecules that can increase or reverse the SirT1 levels in ApoE4 cells are identified. A preliminary estimate, based on the initial screening which yielded two reproducible “hits” from a set of 1000 compounds, which is a 0.2% hit-rate. […] Our initial screening was done on a small library of about 1000 compounds. The assay is translatable to a HTS format.

Data set [4] has as its system SirT1 mRNA. Kind of data set: SirT1 mRNA levels in A172 cells transfected with ApoE4 (quantitative real-time PCR). Particulars: A03 at 2 μM. It is filed as cell-based, human. The protocol: Total RNA from transfected and drug-treated cells is isolated using the High Pure RNA isolation kit (Roche) and 1 μg of RNA is reverse-transcribed. To analyze the mRNA levels of SirT1, real time PCR can be performed on first-strand cDNAs as described (Theendakara et al. (2013) Proc. Natl. Acad. Sci. USA, 10(45): 18303-18308). The real-time PCR can be performed in Light Cycler 480-384-multiwell plates (Roche). Primers for SirT1 were designed using the Roche universal probe library system and the primers were synthesized by Integrated DNA Technology. Real-time PCR can be performed in SYBR Green master mix with the corresponding primer sets. The melting curves of PCR products are monitored to ensure that a single melting curve is obtained. For analysis of the real-time PCR data, δCt values of samples are normalized to values obtained for GAPDH, which is assayed simultaneously. Relative quantification using the DeltaDelta Ct method can be adopted to calculate the relative quantity of SirT1 levels.
(In general: Quantitative PCR measures a nucleic acid by following its amplification.)

The subject of data set [5] is ADAM10 mRNA. The experiment in a line: ADAM10 mRNA levels / transcription in A172 cells transfected with ApoE4. Type of data set: cell-based, human. Particulars: A03 at 2 uM.
Data set [6] is described as follows: Brain penetration after subcutaneous injection in mice. It is filed as in vivo. Here is the method: Pharmacokinetic (PK) analysis for CNS exposure studies can consist of a time course design to collect heparinized plasma and brains (Korfmacher et al. (2001) Rapid Commun. Mass. Spectrom. 15(5): 335-340; Mei et al. (2006) AAPS J. 8(3): E493-500; Spilman et al. (2014) Brain Res. 1551: 25-44). Five non-transgenic mice can be used for the PK studies, and 1, 2, 4, 6, and 8 hour time points taken. Following oral, and either sc or ip administration of the molecules at 10 mg/kg, plasma and brain levels of the compounds can be determined by quantitative LC/MS/MS methodology. Plasma samples can be precipitated with acetonitrile:methanol (1:1) cocktail containing an internal standard. The brain samples can be homogenized directly in ethylacetate or extracted from 5M guanidine homogenates with liquid-liquid method. The resulting supernatant can be evaporated to dryness and subjected to the LC/MS/MS analysis. For each compound 3 mice can be used for this analysis. The brain-to-plasma ratios and brain levels can then be calculated to identify the best candidate(s) for further efficacy testing.

Data set [7] relates to p-tau. Kind of data set: p-Tau levels in SHSY5Y. It is filed as cell-based. The protocol: (§2) sAPPα or sAPPβ secreted into the cellular media are determined with sAPPα or sAPPβ AlphaLISA immunoassay kits (PerkinElmer) according to the manufacturer's protocol with some modifications. The standards, blanks, and media are diluted with the buffer provided in the kit and added to the plate. During the first incubation step, the analyte is captured either by an antibody recognizing the α-secretase cleavage site at sAPPα C-terminus (clone 2B3) or the sAPPβ C-terminus, and then by a second biotin-labeled antibody specific to the N-terminal common domain of sAPP. In the second incubation step, the biotinylated anti-analyte antibody is bound to the streptavidin-coated donor beads. At the end of this reaction, the plates are read on an EnSpire Alpha 2390 multilabel plate reader equipped with the AlphaScreen module. The Aβ1-42 or 1-40 are determined from media and/or cells using Life Science's sandwich ELISA kit. The levels of Aβ are quantified from a standard curve and normalized to total cellular protein (Spilman et al. (2014) Brain Res. 1551: 25-44; Theendakara et al. (2013) Proc. Natl. Acad. Sci. USA, 10(45): 18303-18308), Tau and p-tau are determined from cell extracts by a solid phase double antibody sandwich ELISA technology designed for quantitative determination of phospho-tau (Antibodies-Online). […]

The conditions of data set [8]: rodents, high doses; cited from earlier work.
For data set [9] the following is noted: Phase1 human trials, up to 200 mgs bid; cited from earlier work.
Data set [10] relates to p-tau. Kind of data set: tau phosphorylation (p-tau) in cells transfected with ApoE4. It is filed as cell-based. Here is the method:
as §2

The subject of data set [11] is obese mice. To be noted: cited from earlier work.

As for `Cc1c[nH]c(-c2cnc(NCCNc3ccc(C#N)cn3)nc2-c2ccc(Cl)cc2Cl)n1` [CHIR99021], the sAPPα levels result is “reversed the reduction in sAPPα” in data set [1] and “restores sAPPα levels” in [1] (listed as CHIR). Also, the “APP phosphorylation (p-APP)” value is “reversed” in [2] and “reduces APP phosphorylation” in data set [2] (listed as CHIR).
In the case of `CC(N)C(=O)OC(C)(C)Cc1ccc(Cl)cc1` (stereo not drawn) [Compound A03, 1-(4-chlorophenyl)-2-methylpropan-2-yl 2-aminopropanoate], the “EC20 for SirT1 enhancement” value in data set [3] (N2A cells stably transfected with ApoE4) stood at 200 nM. Besides, the EC50 (commonly the concentration needed to bring the measured effect to its halfway point) in data set [3] (N2A cells stably transfected with ApoE4, read-out: EC50 for SirT1 enhancement) was approximately 2000 nM. Further, the “SirT1 levels (dose-response)” value in [3] is “generated a SirT1 dose-response; also recorded: SirT1 levels increasing with dose”; in data set [3] (listed as Alaproclate), “increases”; in [3] (listed as alaproclate), “increase SirT1 levels in a dose responsive manner”. Moreover, the results for the “mRNA levels of SirT1” value in data set [4] and in data set [4] (listed as Alaproclate) were “normalized; also recorded: normalize the mRNA levels for SirT1” and “increased”, respectively. In addition, the figures for the “ADAM10 mRNA levels / transcription” value in [5] and in data set [5] (listed as Alaproclate) were “normalized; also recorded: normalization of ADAM10 transcription” and “increased”, respectively. Also, the figures for the “brain penetration / brain permeability” value in [6] and in data set [6] (listed as alaproclate) were “excellent brain penetration” and “highly brain permeable”, respectively. In [6] (mouse, brain and plasma, sc, 10 mg/kg, read-out: brain/plasma (B/P)), the Kp is approximately 10. Also, the sAPPα levels entry in [1] (listed as Alaproclate) is “increases”. Moreover, the p-Tau levels entry in [7] is “decreased”. Moreover, the liver toxicity entry in [8] was “observed liver toxicity”. Also, the adverse events result in data set [9] is given as “no observed adverse events”. For the same molecule, the global scores entry in [9] is given as “some improvements in global scores”.
Turning to `CC(C)CC(=O)Nc1[nH]nc2c1CN(C(=O)C1CCN(C)CC1)C2(C)C` [PHA793887], the “APP phosphorylation (p-APP)” value in data set [2] is listed as “attenuated”. Further, in data set [10], the p-tau result is “attenuated”.
As to `O=C(Nc1ccccc1-c1cn2c(CN3CCNCC3)csc2n1)c1cnc2ccccc2n1` [SRT1720], the extension of lifespan in data set [11] was 44%.

Source of the values: patent US20170226059A1, “APOE4-TARGETED THERAPUTICS THAT INCREASE SIRT1” (The Regents of the University of California, priority 2014, published 2017).
